Laboratory results as given in patent publication US7803378B2, “Antigen imitating extracellular areas of membrane proteins of type III produced from intracellular pathogenic micro-organisms, derived conformational antibodies and the use thereof” (priority 2003, dated 2010).

Legend:
[1] = test system: extracellular domains of the LMP2A protein; assay: Immunogenic potency of the LMP2A antigens in mice and rats (ELISA); format: in vivo, EBV; settings: comparison of LMP2A peptides SEQ ID Nos 15, 16, 17
Description: (§1) The LMP1-derived peptides containing only one exogenous cystein (SEQ ID Nos 10, 11, 12, 15, 16) were individually coupled to activated KLH (Imject maleimide-activated KLH®, Perbio) according to the supplier's protocol. Mice (4 animals per group) were injected subcutaneously in the flank, with an emulsion of peptide (50 μg in 0.1 ml H20) and of complete Freund's adjuvant (0.1 ml). On days 21, 42 and 62 following the first injection (D0), the animals are given a boost injection, by the same route, with the same amount of antigen but in incomplete Freund's adjuvant. […]
(§2) Blood samples are taken, by retro-orbital puncture, from the immunized mice, and the sera are then recovered and frozen at −20° C. in 20-μl fractions. […] The reaction is stopped by adding 4N sulfuric acid, and the absorption at 492 nm is measured using an automatic microplate reader (Dynatech).
Antibodies directed against the extracellular domains of the LMP2A proteins were prepared by immunization of batches of 4 BALB/c mice or of batches of 3 LOU/M rats with the peptides SEQ ID Nos 15, 16 and 17 coupled to activated KLH as described in example 1. The response in terms of antibodies directed against the extracellular domains of the LMP2A protein was analyzed by ELISA, as described in example 1.

[2] = test system: extracellular domains of the LMP1 protein; assay: Immunogenic potency of LMP1 antigens: serum antibodies by ELISA after immunization; format: in vivo, EBV; settings: mice immunized with LMP1-derived peptide coupled to KLH or lipid
Description: as §1, §2
Antibodies directed against the extracellular domains of the EBV LMP1 protein were prepared by immunization of mice with the peptides SEQ ID Nos 10 and 11 coupled to KLH, or else with the peptide SEQ ID No. 13 coupled to cholesterol, as described in example 1. The kinetics of appearance of the serum antibodies directed against the extracellular domains of the LMP1 protein were analyzed by ELISA, as described in example 1.

Question: With TWRIEDPPFNSLCVDAVLQLSPL [SEQ ID No. 16] as the substance, how does the humoral response [1] read?
Answer: The humoral response was “best humoral response”.

Question: How did the “Immunogenic Potency” value [2] turn out when “SEQ ID No: 14: LMP1-(ED1 + ED2 + ED3) with linking residues between domains (MSDWTGGALCLWNLHGQALCLYLQQNWWT; Epstein Barr Virus)” was run?
Answer: Its value is “+(IgM)”.
